Test results taken from patent publication US12064516B2, “Pharmaceutical formulations and uses thereof” (Aldeyra Therapeutics, Inc., priority 2020, dated 2024).
Marks after values point to notes of the source that are not given here.

Assay: Pharmacokinetic comparison of ADX-102 (reproxalap) and compound I-1 in rats
Assay type: in vivo, Sprague-Dawley rats
Conditions: SD Rat
[1] = oral gavage 10 mg/kg, CMC/Tween

CC(C)(O)c1nc2ccc(Cl)cc2cc1N [ADX-102]
Vss (intravenous data using captisol formulation): 1.36 L/kg
CL (intravenous data using captisol formulation, in mL/min/kg): 23**
AUC 0-inf/Dose [1]: 64
AUC 0-t/Dose [1]: 60
AUC(0-inf) [1]: 640 ng·h/mL
AUC(0-t) [1]: 595 ng·h/mL
Cmax [1]: 390 ng/mL
Tmax [1]: 0.5 h
t1/2 [1]: 2.27 h
